What was measured:
human neutrophils = test: Direct activation of Ca2+ flux in human neutrophils; type: cell-based; details: Neutrophil, read-out: Human Neutrophils Activation (EC50, μM)
FPR1 [1] = target: T1, FPR1 (Homo sapiens, UniProt P21462); test: Direct activation of Ca2+ flux in FPR1 transfected HL-60 cells; type: cell-based
T1 sequence (P21462 1-350): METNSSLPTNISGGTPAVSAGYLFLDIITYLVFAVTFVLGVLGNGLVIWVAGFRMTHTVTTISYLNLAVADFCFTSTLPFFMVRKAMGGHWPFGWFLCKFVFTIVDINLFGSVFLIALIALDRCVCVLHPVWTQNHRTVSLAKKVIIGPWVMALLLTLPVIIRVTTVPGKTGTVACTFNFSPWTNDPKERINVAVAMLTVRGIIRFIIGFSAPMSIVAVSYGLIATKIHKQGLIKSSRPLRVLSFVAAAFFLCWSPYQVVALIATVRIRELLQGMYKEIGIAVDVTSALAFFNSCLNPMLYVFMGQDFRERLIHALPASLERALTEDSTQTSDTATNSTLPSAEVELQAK

FPR1 [2] = details: high concentrations; cited from earlier work
human monocytes = details: read-out: IC50, inhibition of fMLF-induced Ca2+ flux in human monocytes; cited from earlier work
FPR1 [3] = target: T1, FPR1; details: cited from earlier work

EC50 (human neutrophils) | EC50 (FPR1 [1]) | SMILES | Concentrations that antagonize FPR1 and inhibit 3H-fMLF binding (FPR1 [2]) | IC50 (human monocytes) | Binding of fluorescent FPR1 ligand in human neutrophils (FPR1 [3])
49.5 ± 5.1 µM | 40.3 ± 4.5 µM | C[C@H](CCC(=O)O)[C@H]1CC[C@H]2[C@@H]3[C@H](O)C[C@@H]4C[C@H](O)CC[C@]4(C)[C@H]3CC[C@]12C [Chenodeoxycholic acid (CDCA), Chenodeoxycholic acid] | ≥ 100 µM | 40 µM | 
 |  | CC(=O)OC1COC(OC2C(O)C(C)OC(OC3C(OC4CCC5(C)C(CCC6(C)C5CC=C5C7CC(C)(C)CCC7(C(=O)O)CCC56C)C4(C)CO)OCC(O)C3O)C2O)C(O)C1OC(C)=O [SMG-1, hederagenin 3-O-(3,4-O-di-acetyl-α-L-arabinopyranoside)-(1→3)-α-l-rhamnopyranosyl-(1→2)-α-l-arabinopyranoside] |  |  | blocked binding

From article PMC4791210 (International immunopharmacology, 2015)
